How the values were obtained:
[1] = system: algae, bacteria, fungi, viruses and bryophyte plant material such as mosses, liverworts, hornworts, lichens; assay: 1% spray solution on simple celled plant material; format: in vivo
From the text: The pH of the resulting solution is typically alkaline, which activates the H2O2 for bleaching. The dry powder contains about 30% by weight w/w H2O2 and finds specialty use as a wood brightener and general cleaning aid.

[2] = system: most types of plant material; assay: Spray solution over the tops of growing plant material; format: in vivo; conditions: diluted in water, sprayed over the tops of growing plant material, no foam
[3] = EPA determination, cited from earlier work
[4] = EPA determination; cited from earlier work
[5] = EPA determination; cited from earlier work; remark: listed apart in the source
[6] = EPA determination; cited from earlier work; remark: listed apart in the source

Compound: O=C([O-])[O-].O=C([O-])[O-].OO.OO.OO.[Na+].[Na+].[Na+].[Na+] [sodium carbonate peroxyhydrate]
- effect on simple celled plant material [1]: kill on contact
- phytotoxicity effects of spray solution [2]: minimal with some plant cell necrosis
- toxicity, dermal exposure ([3]; dermal exposure): minimal to mild toxicity
- toxicity, oral exposure ([3]; oral exposure): minimal to mild toxicity
- dermal irritation [4]: Dermal irritation also occurred
- dermal sensitizer [5]: not considered a dermal sensitizer
- eye damage [6]: severe irreversible eye damage
